Here are results for 7 molecules from publication PMC12433258, “Binding Differences of the Peptide‐Substrate–Binding Domain of Collagen Prolyl 4‐Hydroxylases I and II for Proline‐ and Hydroxyproline‐Rich Peptides” (Proteins, 2025).

Where two headings read alike, the source gives them in different places. No end group written: not given here. A value given as a limit tells only on which side of the number the result lay.

Assay [1] deals with T1, PSB‐I^143–238 construct (peptide‐substrate–binding domain of C‐P4H‐I α‐subunit) (Homo sapiens, UniProt P13674).
T1 construct: made in house; host or cells: E. coli Rosetta(DE3)pLysS, pET22b(+)
The assay is described as follows: ITC binding of proline‐rich peptides to the PSB‐I^143–238 construct. Particulars: 25°C, 20 mM Bis‐Tris, 100 mM glycine; for ΔG / ΔH / −TΔS: pH 6.8, fixed n = 1, average ± SD of three measurements. The text has this:
The PSB‐I^143–238 construct was cloned using standard molecular biology protocols, and a codon‐optimized P4ha1 cDNA for the full‐length C‐P4H‐I α‐subunit (GenScript Biotech Corporation, New Jersey, USA) was used as the template. This construct was amplified using a forward primer containing an NdeI site (underlined) (5′‐[…]‐3′) and a reverse primer containing an XhoI site (underlined) (5′‐[…]‐3′). The amplified product was digested with NdeI and XhoI and ligated into a pET22b(+) plasmid (Novagen, Wisconsin, USA) in‐frame with a C‐terminal His6‐tag, and its sequence (Ser143‐Glu238 (Figure 1A), with C‐terminal Leu‐Glu‐His6–tag) was verified by DNA sequencing in the Biocenter Oulu Sequencing Centre. PSB‐I^143–238 was expressed using Rosetta(DE3)pLysS cells in LB medium containing 100 μg/mL ampicillin and 34 μg/mL chloramphenicol. The cells were grown at 37°C using a shaker at 200 rpm until the OD600 reached 0.6–0.8, after which protein expression was induced using 1‐mM isopropyl β‐D‐1‐thiogalactopyranoside and incubated at 30°C for another 4 h. The cells were harvested and resuspended in 20 mL of 20‐mM Bis‐Tris, 100 mM glycine, pH 6.8 lysis buffer. After cell lysis by sonication, the supernatant was loaded onto a 20 mL Ni‐NTA chelating Sepharose column, pre‐equilibrated with the lysis buffer. Unbound proteins were washed away with 100 mL of the same buffer, and the bound proteins were eluted with a 100 mL linear imidazole gradient (0.0–0.5 M). The eluted fractions were analyzed by SDS‐PAGE to identify PSB‐I containing fractions, which were pooled, concentrated using the Amicon ultracentrifugal filter ([…] molecular weight cut‐off) and loaded on a Superdex75 16/600 preparative grade size‐exclusion chromatography (SEC) column (GE Healthcare, Chicago, USA), pre‐equilibrated with a 20 mM Bis‐Tris, 100 mM glycine, pH 6.8, SEC buffer. Fractions with PSB‐I^143–238 of high purity, based on SDS‐PAGE analysis, were pooled and concentrated to about 22 mg/mL (measured with a NanoDrop 1000, Thermo Scientific, Waltham, USA) and stored in the SEC buffer in 100 μL aliquots at −70°C. All characterizations, crystallization, and crystal testing experiments described below were performed in the Biocenter Oulu core facilities.
(§1) The peptides used in these studies were purchased from TAG Copenhagen A/S (Frederiksberg, Denmark). These peptides (9 residues) start with a free amino group and end with a free carboxylate group. The correct mass and the purity of the peptides (> 95% pure) were analyzed by the company using HPLC and mass spectrometry.
The protein samples of the PSB‐I^143–238 and PSB‐II constructs were prepared at a concentration of 50 μM in SEC buffer, being 20 mM Bis‐Tris, 100 mM glycine, pH 6.8 for PSB‐I^143–238 and 20 mM Tris, 50 mM NaCl, 50 mM glycine, pH 8.0 for PSB‐II (as described earlier). The peptides were dissolved in SEC buffer at a concentration of 3 mM by diluting a 100 mM stock solution in water with SEC buffer. The ITC measurements were carried out at 25°C, using the MicroCal iTC‐200 (Malvern Panalytical Ltd., Malvern, UK). The peptide solution was titrated into a sample cell of 200 μL volume from a syringe that was rotating at 750 rpm. First, 0.4 μL of the peptide solution was injected with a duration of 0.8 s; then, 12 consecutive injections were done, each with a volume of 3 μL, a duration of 6 s, and 180 s spacing time between each injection. For each peptide, at first only buffer in the sample cell (without protein) was titrated, and data were collected as control. Then the data for the PSB sample titrated with the peptide‐containing buffer were collected. The titration data were processed with Origin 7 (OriginLab, Massachusetts, USA) specifically designed for ITC data analysis. The control data that measured the residual heat effect from the peptide dilution were subtracted from the data of the peptide titration with PSB in the sample cell. […]

Assay [2] deals with DD‐I construct (double domain construct of the α‐subunit of C‐P4H‐I). Particulars: calorimetric binding, reported previously; read-out: Affinity (K D) for the PSB‐I domain of the DD‐I construct; cited from earlier work. An excerpt: The affinity properties of the PSB‐I and PSB‐II constructs, as obtained from ITC peptide binding experiments, are shown in Table 2 and Figure S3.

Assay [3] deals with T2, PSB‐II^142–236 construct (peptide‐substrate–binding domain of C‐P4H‐II α‐subunit) (Homo sapiens, UniProt O15460).
T2 construct: Met-His6 (N); made in house
Particulars: ITC, data described previously, average ± SD of three measurements; cited from earlier work. (In general: ITC needs no label: the signal is the heat of the interaction.)

The test system of another assay is C‐P4H‐I. Particulars: cited from earlier work. An excerpt:
(§2) Prolines that occur in the PxGP motif cannot be hydroxylated by the C‐P4H catalytic domain, as they are in the X‐position of the XYG‐repeat and the x‐residue at the Y‐position cannot be a proline. […] Low affinity of the (Gly‐Pro‐4Hyp)5 peptide for the PSB co ...

A further assay has as its system PSB‐I construct. Particulars: previous C‐P4H peptide binding studies; cited from earlier work.
Description: as §2

The subject of another assay is PSB‐II construct. Particulars: previous C‐P4H peptide binding studies; cited from earlier work.
Description: as §2

The test system of the next assay is C‐P4H‐II. Particulars: cited from earlier work.
Description: as §2

Assay [4] addresses T2, PSB‐II^142–236 construct (peptide‐substrate–binding domain of C‐P4H‐II α‐subunit). The assay is described as follows: ITC binding of proline‐rich peptides to the PSB‐II construct. Particulars: 25°C, 50 μM protein, 3 mM peptide, 20 mM Tris, 50 mM NaCl, 50 mM glycine, pH 8.0, one‐set‐of‐sites, fixed n = 1, average ± SD of three measurements.
Description: Additional experiments were done with a longer PSB‐I construct, PSB‐I^144–244 (residues Phe144‐Ser244 (Figure 1A), extended by a C‐terminal Leu‐Glu‐(His)6–tag) and with the PSB‐II^142–236 construct (residues Met142‐Glu236 (Figure 1A), preceded at the N‐terminus by a Met‐His6–tag). The expression and purification protocols for the PSB‐I^144–244 construct and the PSB‐II^142–236 construct have been described earlier.
as §1
The protein samples of the PSB‐I^143–238 and PSB‐II constructs were prepared at a concentration of 50 μM in SEC buffer, being 20 mM Bis‐Tris, 100 mM glycine, pH 6.8 for PSB‐I^143–238 and 20 mM Tris, 50 mM NaCl, 50 mM glycine, pH 8.0 for PSB‐II (as described earlier). […] The control data that measured the residual heat effect from the peptide dilution were subtracted from the data of the peptide titration with PSB in the sample cell. The integrated data were analyzed using the one‐set‐of‐sites fitting model with a fixed stoichiometry (n = 1). […]

T1 sequence (P13674 160-255): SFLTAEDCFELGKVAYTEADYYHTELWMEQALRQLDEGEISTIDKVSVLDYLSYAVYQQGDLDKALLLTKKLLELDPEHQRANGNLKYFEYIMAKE
T2 sequence (O15460 163-257): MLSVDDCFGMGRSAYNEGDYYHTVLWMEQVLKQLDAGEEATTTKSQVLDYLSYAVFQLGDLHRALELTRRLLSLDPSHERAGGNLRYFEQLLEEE

Take PPPPPPPPP [P9, (Pro)9 peptide]: in assay [1], the ΔG is -5.59 ± 0.10 kcal/mol, the ΔH is -9.5 ± 0.8 kcal/mol and the “−TΔS” value worked out at 3.95 ± 0.82 kcal/mol. In assay [2], the Kd is 9.8 µM. Also, the Kd in assay [3] was over 1500 µM.
Turning to PPGPEGPPG [PPG‐PEG‐PPG], in assay [1], the ΔG was -5.57 ± 0.02 kcal/mol, the ΔH is -13.2 ± 1.2 kcal/mol and the “−TΔS” value is reported as 7.67 ± 1.17 kcal/mol.
Turning to PPGPPGPPG [(PPG)3, PPG‐PPG‐PPG peptide], in assay [1], the ΔG was -4.83 ± 0.06 kcal/mol, the ΔH was -13.6 ± 1.7 kcal/mol and the “−TΔS” value is given as 8.77 ± 1.66 kcal/mol. Also, the Kd in assay [2] is 144 µM. The “K D” value in assay [3] is “Not detectable”.
In the case of “(Gly‐Pro‐4Hyp)5 [model peptide with a hydroxyproline at the Y‐position of each tripeptide repeat]”, in the assay on C‐P4H‐I, the “Substrate of C‐P4H‐I” value is “not a substrate”. Moreover, the “Affinity for the PSB‐I construct relative to (PPG)5” value in the assay on PSB‐I construct is reported as “much lower affinity than the (PPG)5 substrate peptide”. In the assay with PSB‐II construct, the “Affinity for the PSB‐II construct relative to (PPG)5” value is “much lower affinity than the (PPG)5 substrate peptide”. The “Substrate of C‐P4H‐II” value in the assay on C‐P4H‐II is reported as “not a substrate”.
As for `C[C@H](NC(=O)[C@@H]1CCCN1C(=O)CNC(=O)[C@@H]1C[C@@H](O)CN1C(=O)[C@@H]1CCCN1)C(=O)NCC(=O)N1CCC[C@H]1C(=O)N1C[C@H](O)C[C@H]1C(=O)NCC(=O)O` [POG‐PAG‐POG], the Kd in assay [4] is 26.2 ± 1.9 µM. Moreover, the Kd in assay [1] (50 μM protein in cell, 3 mM peptide in syringe, pH 6.8, one‐set‐of‐sites model, fixed n = 1, average ± SD of three measurements) was determined as 79.6 ± 9.6 µM. Moreover, in assay [1], the ΔG was -5.60 ± 0.08 kcal/mol, the ΔH was -12.7 ± 0.2 kcal/mol and the “−TΔS” value is on record as 7.07 ± 0.25 kcal/mol.
`C[C@H](NC(=O)[C@@H]1CCCN1C(=O)CNC(=O)[C@@H]1CCCN1C(=O)[C@@H]1CCCN1)C(=O)NCC(=O)N1CCC[C@H]1C(=O)N1CCC[C@H]1C(=O)NCC(=O)O` [PPG‐PAG‐PPG]: in assay [1], the ΔG is -5.51 ± 0.02 kcal/mol, the ΔH was -12.4 ± 0.5 kcal/mol and the “−TΔS” value was 6.86 ± 0.49 kcal/mol.
On the same counts, the results for PPGPRGPPG [PPG‐PRG‐PPG] are -6.06 ± 0.04 kcal/mol, -14.9 ± 0.4 kcal/mol and 8.87 ± 0.37 kcal/mol.
